Reference: ChEMBL document CHEMBL1811879, “Fragmental modeling of hPepT2 and analysis of its binding features by docking studies and pharmacophore mapping” (Bioorg Med Chem, 2011)
Where a SMILES comes first, the peptide text is derived from it. [ ]: non-standard residue; d: D form. Nle = CCCC[C@H](N)C(=O)O

Target: T1, Solute carrier family 15 member 2 (Homo sapiens, UniProt Q16348)
T1 sequence (Q16348 whole entry): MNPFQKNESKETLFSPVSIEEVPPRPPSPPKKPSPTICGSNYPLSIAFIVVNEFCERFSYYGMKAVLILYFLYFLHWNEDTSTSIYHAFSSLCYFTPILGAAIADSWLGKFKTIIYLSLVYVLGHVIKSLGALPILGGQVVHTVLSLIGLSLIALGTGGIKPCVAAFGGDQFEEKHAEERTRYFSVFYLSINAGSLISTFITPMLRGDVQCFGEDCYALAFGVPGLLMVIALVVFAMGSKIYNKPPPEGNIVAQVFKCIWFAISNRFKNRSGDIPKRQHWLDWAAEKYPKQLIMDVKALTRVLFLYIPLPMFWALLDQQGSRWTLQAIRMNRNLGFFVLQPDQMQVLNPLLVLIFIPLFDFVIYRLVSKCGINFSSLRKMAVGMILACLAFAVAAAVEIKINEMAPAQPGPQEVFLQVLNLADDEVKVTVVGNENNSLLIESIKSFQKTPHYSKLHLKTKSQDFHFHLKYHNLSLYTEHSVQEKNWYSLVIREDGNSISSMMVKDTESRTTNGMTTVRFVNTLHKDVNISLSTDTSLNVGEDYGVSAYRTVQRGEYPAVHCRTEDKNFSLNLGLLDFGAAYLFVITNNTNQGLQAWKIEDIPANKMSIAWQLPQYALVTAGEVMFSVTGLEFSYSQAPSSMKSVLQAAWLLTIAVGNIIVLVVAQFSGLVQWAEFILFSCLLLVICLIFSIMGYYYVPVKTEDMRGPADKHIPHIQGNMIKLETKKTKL
Assay: Binding affinity to human PepT2 in SKTP cells
Assay type: ADME, cell-based

## CO/N=C(\C(=O)N[C@@H]1C(=O)N2C(C(=O)[O-])=C(C[N+]3(C)CCCC3)CS[C@H]12)c1csc(N)n1
  Ki: 11000 µM

## C[C@H](N)C(=O)N[C@@H](C)C(=O)N[C@@H](C)C(=O)O
  Ki: 18 µM

## C[C@H](NC(=O)[C@@H](N)Cc1ccc(O)cc1)C(=O)O
  Ki: 4.4 µM

## N[C@@H](Cc1c[nH]c2ccccc12)C(=O)NCC(=O)N[C@@H](Cc1ccc(O)cc1)C(=O)O
  Ki: 1.7 µM

## N[C@@H](CS)C(=O)NCC(=O)O
  Ki: 29 µM

## CC(=O)N[C@@H](CCCCN)C(=O)N[C@@H](C)C(=O)O (Ac-Lys-Ala-OH)
  Ki: 16 µM

## C[C@H](N)C(=O)N[C@H](C(=O)N[C@@H](C)C(=O)N[C@@H](C)C(=O)O)[C@@H](C)O (H-ATAA-OH)
  Ki: 550 µM

## C[C@H](N)C(=O)N[C@@H](C)C(=O)N[C@@H](CC(=O)O)C(=O)O (H-Ala-Ala-Asp-OH)
  Ki: 160 µM

## C[C@H](N)C(=O)NCC(=O)O (H-Ala-Gly-OH)
  Ki: 7 µM

## C[C@H](N)C(=O)N[C@@H](CCCCN)C(=O)O (H-Ala-Lys-OH)
  Ki: 23 µM

## C[C@H](N)C(=O)N1CCC[C@H]1C(=O)O (H-Ala-Pro-OH)
  Ki: 12 µM

## C[C@H](N)C(=O)N[C@@H](CO)C(=O)O (H-Ala-Ser-OH)
  Ki: 6 µM

## CCCC[C@H](NC(=O)[C@H](C)N)C(=O)O (H-Ala-[Nle]-OH)
  Ki: 31 µM

## C[C@H](N)C(=O)N[C@H](C)C(=O)O (H-Ala-[dA]-OH)
  Ki: 270 µM

## N[C@@H](CC(=O)O)C(=O)N[C@@H](CC(=O)O)C(=O)O (H-Asp-Asp-OH)
  Ki: 150 µM

## C[C@H](NC(=O)CN)C(=O)O (H-Gly-Ala-OH)
  Ki: 3.5 µM

## NCC(=O)NCC(=O)O (H-Gly-Gly-OH)
  Ki: 54 µM

## NCCCC[C@H](NC(=O)[C@H](Cc1cnc[nH]1)NC(=O)CN)C(=O)O (H-Gly-His-Lys-OH)
  Ki: 3100 µM

## NCC(=O)N[C@@H](Cc1c[nH]cn1)C(=O)O (H-Gly-His-OH)
  Ki: 39 µM

## CC[C@H](C)[C@H](N)C(=O)N[C@@H](Cc1ccc(O)cc1)C(=O)O (H-Ile-Tyr-OH)
  Ki: 8 µM

## CC[C@H](C)[C@H](N)C(=O)N[C@H](C(=O)N[C@@H](Cc1ccc(O)cc1)C(=O)O)C(C)C (H-Ile-Val-Tyr-OH)
  Ki: 14 µM

## CC(C)C[C@H](N)C(=O)NCC(=O)NCC(=O)O (H-Leu-Gly-Gly-OH)
  Ki: 18 µM

## CC(C)C[C@H](N)C(=O)N1CCC[C@H]1C(=O)O (H-Leu-Pro-OH)
  Ki: 10 µM

## C[C@H](NC(=O)[C@@H](N)CCCCN)C(=O)O (H-Lys-Ala-OH)
  Ki: 41 µM

## CSCC[C@H](NC(=O)[C@@H](N)CCSC)C(=O)O (H-Met-Met-OH)
  Ki: 3 µM

## N[C@@H](Cc1ccccc1)C(=O)NCC(=O)O (H-Phe-Gly-OH)
  Ki: 14 µM

## N[C@@H](Cc1ccccc1)C(=O)N[C@@H](Cc1ccccc1)C(=O)O (H-Phe-Phe-OH)
  Ki: 37 µM

## O=C(O)C[C@H](NC(=O)[C@@H]1CCCN1)C(=O)O (H-Pro-Asp-OH)
  Ki: 2100 µM

## O=C(O)CC[C@H](NC(=O)[C@@H]1CCCN1)C(=O)O (H-Pro-Glu-OH)
  Ki: 2600 µM

## NCCCC[C@H](NC(=O)[C@H](Cc1ccccc1)NC(=O)[C@@H]1CCCN1)C(=O)O (H-Pro-Phe-Lys-OH)
  Ki: 900 µM

## C[C@H](NC(=O)[C@@H](N)CO)C(=O)O (H-Ser-Ala-OH)
  Ki: 7 µM

## C[C@H](NC(=O)[C@@H](N)Cc1c[nH]c2ccccc12)C(=O)O (H-Trp-Ala-OH)
  Ki: 4 µM

## N[C@@H](Cc1c[nH]c2ccccc12)C(=O)N[C@@H](Cc1c[nH]c2ccccc12)C(=O)O (H-Trp-Trp-OH)
  Ki: 0.8 µM

## N[C@@H](Cc1c[nH]c2ccccc12)C(=O)N[C@@H](Cc1c[nH]c2ccccc12)C(=O)N[C@@H](Cc1c[nH]c2ccccc12)C(=O)O (H-Trp-Trp-Trp-OH)
  Ki: 0.3 µM

## N[C@@H](Cc1ccc(O)cc1)C(=O)N[C@@H](Cc1ccccc1)C(=O)O (H-Tyr-Phe-OH)
  Ki: 9 µM

## CC(C)[C@H](N)C(=O)N1CCC[C@H]1C(=O)O (H-Val-Pro-OH)
  Ki: 39 µM

## CC(C)[C@H](N)C(=O)N[C@@H](Cc1ccc(O)cc1)C(=O)O (H-Val-Tyr-OH)
  Ki: 2.5 µM

## C[C@H](NC(=O)[C@@H](C)N)C(=O)O (H-[dA]-Ala-OH)
  Ki: 130 µM

## CC1(C)S[C@@H]2[C@H](NC(=O)[C@H](N)c3ccc(O)cc3)C(=O)N2[C@H]1C(=O)O [AMOXICILLIN]
  Ki: 430 µM

## CC1=C(C(=O)O)N2C(=O)[C@@H](NC(=O)[C@H](N)c3ccc(O)cc3)[C@H]2SC1 [CEFADROXIL]
  Ki: 3 µM

## Cn1nnnc1SCC1=C(C(=O)O)N2C(=O)[C@@H](NC(=O)[C@H](O)c3ccccc3)[C@H]2SC1 [CEFAMANDOLE]
  Ki: 2800 µM

## C=CC1=C(C(=O)O)N2C(=O)[C@@H](NC(=O)/C(=N\OCC(=O)O)c3csc(N)n3)[C@H]2SC1 [CEFIXIME]
  Ki: 2600 µM

## CO[C@@]1(NC(=O)CSCC#N)C(=O)N2C(C(=O)O)=C(CSc3nnnn3C)CS[C@@H]21 [CEFMETAZOLE]
  Ki: 4300 µM

## CO/N=C(\C(=O)N[C@@H]1C(=O)N2C(C(=O)O)=C(CSc3nc(C)c(CC(=O)O)s3)CS[C@H]12)c1csc(N)n1 [CEFODIZIME]
  Ki: 9000 µM

## CO/N=C(\C(=O)N[C@@H]1C(=O)N2C(C(=O)O)=C(COC(C)=O)CS[C@H]12)c1csc(N)n1 [CEFOTAXIME]
  Ki: 20000 µM

## COCC1=C(C(=O)O)N2C(=O)[C@@H](NC(=O)/C(=N\OC)c3csc(N)n3)[C@H]2SC1 [CEFPODOXIME]
  Ki: 31000 µM

## CO/N=C(\C(=O)N[C@@H]1C(=O)N2C(C(=O)O)=C(COC(N)=O)CS[C@H]12)c1ccco1 [CEFUROXIME]
  Ki: 12600 µM

## CC1=C(C(=O)O)N2C(=O)[C@@H](NC(=O)[C@H](N)c3ccccc3)[C@H]2SC1 [CEPHALEXIN ANHYDROUS]
  Ki: 75 µM

## O=C(Cc1cccs1)N[C@@H]1C(=O)N2C(C(=O)[O-])=C(C[n+]3ccccc3)CS[C@H]12 [CEPHALORIDINE]
  Ki: 8500 µM

## CC(=O)OCC1=C(C(=O)O)N2C(=O)[C@@H](NC(=O)Cc3cccs3)[C@H]2SC1 [CEPHALOTHIN]
  Ki: 8300 µM

## CC(=O)OCC1=C(C(=O)O)N2C(=O)[C@@H](NC(=O)CSc3ccncc3)[C@H]2SC1 [CEPHAPIRIN SODIUM]
  Ki: 11100 µM

## Cc1onc(-c2ccccc2Cl)c1C(=O)N[C@@H]1C(=O)N2[C@@H]1SC(C)(C)[C@@H]2C(=O)O [CLOXACILLIN]
  Ki: 950 µM

## CC1(C)S[C@@H]2[C@H](NC(=O)C3(N)CCCCC3)C(=O)N2[C@H]1C(=O)O [CYCLACILLIN]
  Ki: 44 µM

## Cc1onc(-c2c(Cl)cccc2Cl)c1C(=O)N[C@@H]1C(=O)N2[C@@H]1SC(C)(C)[C@@H]2C(=O)O [DICLOXACILLIN]
  Ki: 420 µM

## CC(=O)CCC(=O)O [LEVULINIC ACID]
  Ki: 230 µM

## C=N[C@@H](C(=O)N[C@@H]1C(=O)N2[C@@H]1SC(C)(C)[C@@H]2C(=O)O)c1ccccc1 [METAMPICILLIN]
  Ki: 730 µM

## Cc1onc(-c2ccccc2)c1C(=O)N[C@@H]1C(=O)N2[C@@H]1SC(C)(C)[C@@H]2C(=O)O [OXACILLIN]
  Ki: 3300 µM

## H-AATAA-OH
  Ki: 190 µM

## H-FATAA-OH
  Ki: 240 µM
